# System: K12877-001-R-J1-PDC complex spheroid viability
# Experiment: Anticancer human tumor K12877-001-R-J1-PDC patient-derived lung adenocarcinoma cell line growth inhibition [RAS]
# Conditions: for IC50: curve of first compound; for viability, T/C: stronger effect = lower value
# Summary of the method: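 Tumour cells grown as complex spheroids with HUVEC endothelial cells and mesenchymal stem cells, treated with RAS pathway inhibitor combinations. Each agent spans half-log steps from near clinical Cmax, or 10 microM where Cmax is unknown.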
# [1] = second compound 0.000949 µM, first compound 0.00316 µM
# [2] = second compound 0.000949 µM, first compound 0.01 µM
# [3] = second compound 0.000949 µM, first compound 0.0316 µM
# [4] = second compound 0.000949 µM, first compound 0.1 µM
# [5] = second compound 0.000949 µM, first compound 0.316 µM
# [6] = second compound 0.000949 µM, first compound 1 µM
# [7] = second compound 0.003 µM, first compound 0.00316 µM
# [8] = second compound 0.003 µM, first compound 0.01 µM
# [9] = second compound 0.003 µM, first compound 0.0316 µM
# [10] = second compound 0.003 µM, first compound 0.1 µM
# [11] = second compound 0.003 µM, first compound 0.316 µM
# [12] = second compound 0.003 µM, first compound 1 µM
# [13] = second compound 0.00949 µM, first compound 0.00316 µM
# [14] = second compound 0.00949 µM, first compound 0.01 µM
# [15] = second compound 0.00949 µM, first compound 0.0316 µM
# [16] = second compound 0.00949 µM, first compound 0.1 µM
# [17] = second compound 0.00949 µM, first compound 0.316 µM
# [18] = second compound 0.00949 µM, first compound 1 µM
# [19] = second compound 0.03 µM, first compound 0.00316 µM
# [20] = second compound 0.03 µM, first compound 0.01 µM
# [21] = second compound 0.03 µM, first compound 0.0316 µM
# [22] = second compound 0.03 µM, first compound 0.1 µM
# [23] = second compound 0.03 µM, first compound 0.316 µM
# [24] = second compound 0.03 µM, first compound 1 µM
# [25] = second compound 0.0949 µM, first compound 0.00316 µM
# [26] = second compound 0.0949 µM, first compound 0.01 µM
# [27] = second compound 0.0949 µM, first compound 0.0316 µM
# [28] = second compound 0.0949 µM, first compound 0.1 µM
# [29] = second compound 0.0949 µM, first compound 0.316 µM
# [30] = second compound 0.0949 µM, first compound 1 µM
# [31] = second compound 0.3 µM, first compound 0.00316 µM
# [32] = second compound 0.3 µM, first compound 0.01 µM
# [33] = second compound 0.3 µM, first compound 0.0316 µM
# [34] = second compound 0.3 µM, first compound 0.1 µM
# [35] = second compound 0.3 µM, first compound 0.316 µM
# [36] = second compound 0.3 µM, first compound 1 µM
# 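Further: spheroids exposed to agents for one week before readout.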
# 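Wherever viability, T/C is given: tumour cells co-cultured with HUVEC and mesenchymal stem cells in spheroids.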
structure (smiles),measurement,setting,value
CC1(C)CCC(Nc2ncc(C(F)(F)F)c(-c3c[nH]c4c(P(C)(C)=O)c(C#N)ccc34)n2)CN1 (stereo unspecified) + C=CC(=O)N1CCN(c2nc(OCC3CCCN3C)nc3c(F)c(-c4nc(N)cc(C)c4C(F)(F)F)c(Cl)cc23)C(C)C1,IC50,second compound 0.00316 µM,0.0325 µM
same,IC50,second compound 0.01 µM,0.076 µM
same,IC50,second compound 0.0316 µM,0.0466 µM
same,IC50,second compound 0.1 µM,0.0385 µM
same,IC50,second compound 0.316 µM,0.059 µM
same,IC50,second compound 1 µM,0.098 µM
same,"viability, T/C","second compound 0.00316 µM, first compound 0.000949 µM",107%
same,"viability, T/C","second compound 0.00316 µM, first compound 0.003 µM",85.1%
same,"viability, T/C","second compound 0.00316 µM, first compound 0.00949 µM",74.4%
same,"viability, T/C","second compound 0.00316 µM, first compound 0.03 µM",53.2%
same,"viability, T/C","second compound 0.00316 µM, first compound 0.0949 µM",30.1%
same,"viability, T/C","second compound 0.00316 µM, first compound 0.3 µM",36.3%
same,"viability, T/C","second compound 0.01 µM, first compound 0.000949 µM",92.3%
same,"viability, T/C","second compound 0.01 µM, first compound 0.003 µM",78.3%
same,"viability, T/C","second compound 0.01 µM, first compound 0.00949 µM",62.5%
same,"viability, T/C","second compound 0.01 µM, first compound 0.03 µM",59.1%
same,"viability, T/C","second compound 0.01 µM, first compound 0.0949 µM",47.4%
same,"viability, T/C","second compound 0.01 µM, first compound 0.3 µM",43.4%
same,"viability, T/C","second compound 0.0316 µM, first compound 0.000949 µM",87%
same,"viability, T/C","second compound 0.0316 µM, first compound 0.003 µM",73.6%
same,"viability, T/C","second compound 0.0316 µM, first compound 0.00949 µM",63.9%
same,"viability, T/C","second compound 0.0316 µM, first compound 0.03 µM",57.2%
same,"viability, T/C","second compound 0.0316 µM, first compound 0.0949 µM",42%
same,"viability, T/C","second compound 0.0316 µM, first compound 0.3 µM",33.1%
same,"viability, T/C","second compound 0.1 µM, first compound 0.000949 µM",80.1%
same,"viability, T/C","second compound 0.1 µM, first compound 0.003 µM",76.8%
same,"viability, T/C","second compound 0.1 µM, first compound 0.00949 µM",63.8%
same,"viability, T/C","second compound 0.1 µM, first compound 0.03 µM",52.6%
same,"viability, T/C","second compound 0.1 µM, first compound 0.0949 µM",41.6%
same,"viability, T/C","second compound 0.1 µM, first compound 0.3 µM",32.9%
same,"viability, T/C","second compound 0.316 µM, first compound 0.000949 µM",87.7%
same,"viability, T/C","second compound 0.316 µM, first compound 0.003 µM",79.6%
same,"viability, T/C","second compound 0.316 µM, first compound 0.00949 µM",66.2%
same,"viability, T/C","second compound 0.316 µM, first compound 0.03 µM",54.8%
same,"viability, T/C","second compound 0.316 µM, first compound 0.0949 µM",48.1%
same,"viability, T/C","second compound 0.316 µM, first compound 0.3 µM",35.1%
same,"viability, T/C","second compound 1 µM, first compound 0.000949 µM",85.6%
same,"viability, T/C","second compound 1 µM, first compound 0.003 µM",77.6%
same,"viability, T/C","second compound 1 µM, first compound 0.00949 µM",70.5%
same,"viability, T/C","second compound 1 µM, first compound 0.03 µM",62.8%
same,"viability, T/C","second compound 1 µM, first compound 0.0949 µM",49.7%
same,"viability, T/C","second compound 1 µM, first compound 0.3 µM",38.3%
C=CC(=O)Nc1cc(Nc2nccc(-c3cn(C)c4ccccc34)n2)c(OC)cc1N(C)CCN(C)C + CCn1c(-c2cc(N3CCN(C)CC3)cnc2C(C)OC)c2c3cc(ccc31)-c1csc(n1)CC(NC(=O)C1CC1C)C(=O)N1CCCC(N1)C(=O)OCC(C)(C)C2,IC50,second compound 0.000949 µM,> 1 µM
same,IC50,second compound 0.003 µM,> 1 µM
same,IC50,second compound 0.00949 µM,> 1 µM
same,IC50,second compound 0.03 µM,> 1 µM
same,IC50,second compound 0.0949 µM,> 1 µM
same,IC50,second compound 0.3 µM,> 1 µM
same,"viability, T/C",[1],90.8%
same,"viability, T/C",[2],69.3%
same,"viability, T/C",[3],83.4%
same,"viability, T/C",[4],78.9%
same,"viability, T/C",[5],82.4%
same,"viability, T/C",[6],71.3%
same,"viability, T/C",[7],73.7%
same,"viability, T/C",[8],70.3%
same,"viability, T/C",[9],66.1%
same,"viability, T/C",[10],74.4%
same,"viability, T/C",[11],74.9%
same,"viability, T/C",[12],72%
same,"viability, T/C",[13],82.9%
same,"viability, T/C",[14],71.4%
same,"viability, T/C",[15],69%
same,"viability, T/C",[16],69.6%
same,"viability, T/C",[17],63%
same,"viability, T/C",[18],73%
same,"viability, T/C",[19],89.3%
same,"viability, T/C",[20],83.2%
same,"viability, T/C",[21],80.4%
same,"viability, T/C",[22],75.9%
same,"viability, T/C",[23],90.2%
same,"viability, T/C",[24],93.1%
same,"viability, T/C",[25],106%
same,"viability, T/C",[26],104%
same,"viability, T/C",[27],125%
same,"viability, T/C",[28],97.7%
same,"viability, T/C",[29],87.7%
same,"viability, T/C",[30],84.7%
same,"viability, T/C",[31],90%
same,"viability, T/C",[32],96.1%
same,"viability, T/C",[33],93%
same,"viability, T/C",[34],89.8%
same,"viability, T/C",[35],82.5%
same,"viability, T/C",[36],73.7%
O=C(c1ccc(F)c(F)c1Nc1ccc(I)cc1F)N1CC(O)([C@@H]2CCCCN2)C1 + CCn1c(-c2cc(N3CCN(C)CC3)cnc2C(C)OC)c2c3cc(ccc31)-c1csc(n1)CC(NC(=O)C1CC1C)C(=O)N1CCCC(N1)C(=O)OCC(C)(C)C2,IC50,second compound 0.000949 µM,> 1 µM
same,IC50,second compound 0.003 µM,> 1 µM
same,IC50,second compound 0.00949 µM,> 1 µM
same,IC50,second compound 0.03 µM,0.508 µM
same,IC50,second compound 0.0949 µM,0.0988 µM
same,IC50,second compound 0.3 µM,0.0585 µM
same,"viability, T/C",[1],79.6%
same,"viability, T/C",[2],71.2%
same,"viability, T/C",[3],66%
same,"viability, T/C",[4],57.9%
same,"viability, T/C",[5],71.4%
same,"viability, T/C",[6],56%
same,"viability, T/C",[7],71.4%
same,"viability, T/C",[8],66.6%
same,"viability, T/C",[9],68.1%
same,"viability, T/C",[10],79%
same,"viability, T/C",[11],82.6%
same,"viability, T/C",[12],60.5%
same,"viability, T/C",[13],71.3%
same,"viability, T/C",[14],65.8%
same,"viability, T/C",[15],82%
same,"viability, T/C",[16],91.3%
same,"viability, T/C",[17],80.7%
same,"viability, T/C",[18],53.5%
same,"viability, T/C",[19],110%
same,"viability, T/C",[20],105%
same,"viability, T/C",[21],98.9%
same,"viability, T/C",[22],72.6%
same,"viability, T/C",[23],59.4%
same,"viability, T/C",[24],40%
same,"viability, T/C",[25],92.7%
same,"viability, T/C",[26],90.4%
same,"viability, T/C",[27],77.8%
same,"viability, T/C",[28],50.3%
same,"viability, T/C",[29],29%
same,"viability, T/C",[30],25.6%
same,"viability, T/C",[31],80.2%
same,"viability, T/C",[32],74.9%
same,"viability, T/C",[33],54.8%
same,"viability, T/C",[34],44.8%
same,"viability, T/C",[35],29.2%
same,"viability, T/C",[36],20.3%
